Assay results taken from patent US4748122A, “2,5-diketo-D-gluconic acid reductase” (Shionogi & Co., Ltd., priority 1983, dated 1988).

Assays:
25DKG-Rase [1] = biological target: T1, 25DKG-Rase (Corynebacterium sp., UniProt P15339); assay: Spectrophotometric enzymatic activity (decrease in absorption at 340 nm), purified enzyme solution of Example 1; format: biochemical, Corynebacterium sp. No. 20A-77 mutant (FERM-BP 108); details: for Enzymatic activity: per 1 ml purified enzyme solution
T1 construct: The enzyme is an intracellular enzyme extracted from the cells of the 2KLG producing strain; made in house; host or cells: natural producer Corynebacterium sp; No. 20A-77 mutant FERM-BP 108, enzyme purified from sonicated cells; not recombinant
T1 sequence (P15339 2-277 limits assumed): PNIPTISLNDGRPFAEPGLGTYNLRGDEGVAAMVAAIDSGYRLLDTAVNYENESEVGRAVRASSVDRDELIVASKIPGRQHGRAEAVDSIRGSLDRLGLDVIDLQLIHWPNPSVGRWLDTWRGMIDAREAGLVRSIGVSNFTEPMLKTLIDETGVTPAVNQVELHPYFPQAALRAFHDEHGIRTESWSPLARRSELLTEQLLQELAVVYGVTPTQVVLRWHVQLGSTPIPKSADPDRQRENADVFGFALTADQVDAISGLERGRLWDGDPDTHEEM

25DKG-Rase [2] = biological target: T1, 25DKG-Rase; format: biochemical, Corynebacterium sp. No. 20A-77 mutant (FERM-BP 108); details: 10 μl enzyme solution, 25 μmoles substrate, 15 μmoles NADPH, 30° C., 60 minutes; gas chromatography
[3] = system: 25DKG-Rase derived from Strain K-106; assay: Enzymatic activity of 25DKG-Rase obtained from K-106 (Example 2); format: biochemical, Corynebacterium sp. No. K-106 (ATCC 31,088); details: for Enzymatic activity (relative activity): 100 = activity at pH 7, 30° C.
Method: (§1) Two point nine (2.9) ml of 0.1M TB (pH 7) containing 0.3 μmoles of NADPH was placed in a quartz cubette having 1 cm optical length difference and added 1-5 μl of the enzyme solution obtained above (3) thereto. Then, to the mixture, each 0.1 ml of the various substrate solutions (0.1M) were added while being kept at 30° C. Reactivities of the enzyme on the respective substrates were determined, by means of successive measurement of the decrease in absorption at 340 nm, on the basis of the decrease for 1 minute.
(§2) The measurements of the physico-chemical properties were conducted in a manner as described in Example 1-(4) (5).
(§3) Enzymatic activities of 25DKG-Rases obtained from K-106 and T-13 were measured at varying pH from 4 to 9 (substrate: Ca-25DKG, reaction temperature: 30° C.).
(§4) The enzymatic activities of 25DKG-Rases obtained from K-106 and T-13 were measured at varying temperature (pH 7.0, substrate: Ca-25DKG).

[4] = system: 25DKG-Rase derived from Strain T-13; assay: Enzymatic activity of 25DKG-Rase obtained from T-13 (Example 2); format: biochemical, Corynebacterium sp. No. T-13 (ATCC 31,089); details: for Enzymatic activity (relative activity): 100 = activity at pH 7, 30° C.
Method: as §1, §2, §3, §4

[5] = system: 25DKG-Rase derived from Strain K-106; assay: Substrate specificity by product formation, enzyme from K-106; format: biochemical, Corynebacterium sp. No. K-106 (ATCC 31,088)
Method: (§5) The purified enzyme solution (10 μl) obtained above (3) was mixed with 25 μmoles of a substrate (Ca-25DKG or 5KF) and 3.0 ml of 0.01M TB (pH 7) containing 15 μmoles of NADPH and the mixture was allowed to react at 30° C. for 60 minutes. After the reaction, the reaction mixture was analyzed by paper chromatography (developing solvent; phenol:formic acid:water=75:4:25, chromogenic agent; AHF solution, prepared by dissolving 0.93 g of anilin and 1.66 g of phthalic acid in 100 ml of water-saturated n-butanol and heating at 105° C. for 2 minutes) and by gas chromatography (column; SE-52, carrier gas: Helium, sample; trimethylsilylated derivative). […] In Table 1, the results of quantitative determination of the products by gas chromatography are shown.
as §2

[6] = system: 25DKG-Rase derived from Strain T-13; assay: Substrate specificity by product formation, enzyme from T-13; format: biochemical, Corynebacterium sp. No. T-13 (ATCC 31,089)
Method: as §5, §2

[7] = system: 25DKG-Rase derived from Strain K-106; assay: Enzymatic activity of 25DKG-Rase obtained from K-106 (Example 2); format: biochemical, Corynebacterium sp. No. K-106 (ATCC 31,088); details: enzyme from K-106, coenzyme NADH
[8] = system: 25DKG-Rase derived from Strain T-13; assay: Enzymatic activity of 25DKG-Rase obtained from T-13 (Example 2); format: biochemical, Corynebacterium sp. No. T-13 (ATCC 31,089); details: enzyme from T-13, coenzyme NADH

## O=C(O)C(=O)[C@@H](O)[C@H](O)C(=O)CO [Ca-25DKG]
25DKG-Rase [1]; 15 °C., pH 7
  Enzymatic activity: 14 unit/ml
25DKG-Rase [1]; 25 °C., pH 7
  Enzymatic activity: 29 unit/ml
25DKG-Rase [1]; 27.5 °C., pH 7
  Enzymatic activity: 44 unit/ml
25DKG-Rase [1]; 30 °C., pH 7
  Enzymatic activity: 54 unit/ml
25DKG-Rase [1]; 32.5 °C., pH 7
  Enzymatic activity: 59 unit/ml
25DKG-Rase [1]; 35 °C., pH 7
  Enzymatic activity: 64 unit/ml
25DKG-Rase [1]; 40 °C., pH 7
  Enzymatic activity: 67 unit/ml
25DKG-Rase [1]; 45 °C., pH 7
  Enzymatic activity: 44 unit/ml
25DKG-Rase [1]; 50 °C., pH 7
  Enzymatic activity: 10 unit/ml
25DKG-Rase [1]; NADPH, 0.1M TB pH 7, 30° C.
  Activity of the purified enzyme solution (1 ml): 54 units
25DKG-Rase [1]; pH 4.0, 3,3-dimethylglutaric acid buffer
  Enzymatic activity: 1 unit/ml
25DKG-Rase [1]; pH 5.0, 3,3-dimethylglutaric acid buffer
  Enzymatic activity: 22 unit/ml
25DKG-Rase [1]; pH 6.0, Good (PIPES) buffer
  Enzymatic activity: 59 unit/ml
25DKG-Rase [1]; pH 6.5, Good (PIPES) buffer
  Enzymatic activity: 57 unit/ml
25DKG-Rase [1]; pH 7.0, Good (PIPES) buffer
  Enzymatic activity: 53 unit/ml
25DKG-Rase [1]; pH 7.0, Tris buffer
  Enzymatic activity: 54 unit/ml
25DKG-Rase [1]; pH 7.5, Tris buffer
  Enzymatic activity: 44 unit/ml
25DKG-Rase [1]; pH 8.0, Tris buffer
  Enzymatic activity: 32 unit/ml
25DKG-Rase [1]; pH 8.5, Tris buffer
  Enzymatic activity: 11 unit/ml
25DKG-Rase [1]; pH 9.0, Tris buffer
  Enzymatic activity: 7 unit/ml
25DKG-Rase [2]
  Concentration of the product: 845 µg/mL
[3]; K-106, 22 °C., pH 7.0
  Enzymatic activity (relative activity): 46
[3]; K-106, 25 °C., pH 7.0
  Enzymatic activity (relative activity): 69
[3]; K-106, 28 °C., pH 7.0
  Enzymatic activity (relative activity): 86
[3]; K-106, 30 °C., pH 7.0
  Enzymatic activity (relative activity): 100
[3]; K-106, 35 °C., pH 7.0
  Enzymatic activity (relative activity): 115
[3]; K-106, 40 °C., pH 7.0
  Enzymatic activity (relative activity): 119
[3]; K-106, 45 °C., pH 7.0
  Enzymatic activity (relative activity): 93
[3]; K-106, 50 °C., pH 7.0
  Enzymatic activity (relative activity): 44
[3]; K-106, pH 4.0, 30° C.
  Enzymatic activity (relative activity): 1
[3]; K-106, pH 5.0, 30° C.
  Enzymatic activity (relative activity): 48
[3]; K-106, pH 6.0, 30° C.
  Enzymatic activity (relative activity): 103
[3]; K-106, pH 7.0, 30° C.
  Enzymatic activity (relative activity): 100
[3]; K-106, pH 8.0, 30° C.
  Enzymatic activity (relative activity): 70
[3]; K-106, pH 9.0, 30° C.
  Enzymatic activity (relative activity): 6
[3]; enzyme from Strain K-106, NADPH
  Enzymatic activity per protein: 95 units/mg protein
[3]; enzyme from Strain K-106, purified enzyme solution, NADPH
  Enzymatic activity: 23.8 units/ml
[4]; T-13, 22 °C., pH 7.0
  Enzymatic activity (relative activity): 64
[4]; T-13, 25 °C., pH 7.0
  Enzymatic activity (relative activity): 79
[4]; T-13, 28 °C., pH 7.0
  Enzymatic activity (relative activity): 92
[4]; T-13, 30 °C., pH 7.0
  Enzymatic activity (relative activity): 100
[4]; T-13, 35 °C., pH 7.0
  Enzymatic activity (relative activity): 115
[4]; T-13, 40 °C., pH 7.0
  Enzymatic activity (relative activity): 133
[4]; T-13, 45 °C., pH 7.0
  Enzymatic activity (relative activity): 128
[4]; T-13, 50 °C., pH 7.0
  Enzymatic activity (relative activity): 92
[4]; T-13, pH 4.0, 30° C.
  Enzymatic activity (relative activity): 1
[4]; T-13, pH 5.0, 30° C.
  Enzymatic activity (relative activity): 65
[4]; T-13, pH 6.0, 30° C.
  Enzymatic activity (relative activity): 104
[4]; T-13, pH 7.0, 30° C.
  Enzymatic activity (relative activity): 100
[4]; T-13, pH 8.0, 30° C.
  Enzymatic activity (relative activity): 64
[4]; T-13, pH 9.0, 30° C.
  Enzymatic activity (relative activity): 19
[4]; enzyme from Strain T-13, NADPH
  Enzymatic activity per protein: 89 units/mg protein
[4]; enzyme from Strain T-13, purified enzyme solution, NADPH
  Enzymatic activity: 15.1 units/ml
[5]
  product formed (substrate specificity): produced only Ca-2KLG
[6]
  product formed (substrate specificity): produced only Ca-2KLG
[7]
  enzymatic activity using NADH as the coenzyme: ≤ 0.1 unit/ml
[8]
  enzymatic activity using NADH as the coenzyme: ≤ 0.1 unit/ml
